11 molecules from ChEMBL document CHEMBL1142983, “Carbonic anhydrase inhibitors: inhibition of isozymes I, II, and IX with triazole-linked O-glycosides of benzene sulfonamides” (J Med Chem, 2007) can be followed below.

The target in one assay is Carbonic anhydrase 9 (Homo sapiens, UniProt Q16790).
The next assay addresses Carbonic anhydrase 2 (Homo sapiens, UniProt P00918).

As a reminder, the Ki is the dissociation constant of the complex between target and ligand, obtained from inhibition or displacement. Read a high Ki as lower affinity.

Description for Carbonic anhydrase 2: Inhibition of human recombinant isozyme CA2 by CO2 hydration method
Description for Carbonic anhydrase 9: Inhibition of catalytic domain of human recombinant isozyme CA9 by CO2 hydration method

At Carbonic anhydrase 9, `NS(=O)(=O)c1ccc(-n2cc(CO[C@@H]3O[C@H](CO)[C@@H](O[C@H]4O[C@H](CO)[C@@H](O)[C@H](O)[C@H]4O)[C@H](O)[C@H]3O)nn2)cc1` yielded a Ki of 84 nM.

As for `NS(=O)(=O)c1ccc(-n2cc(CO[C@@H]3O[C@H](CO)[C@H](O)[C@H](O)[C@H]3O)nn2)cc1`, the Ki on Carbonic anhydrase 9 was determined as 120 nM; on Carbonic anhydrase 2, 53 nM.

On to `NS(=O)(=O)c1ccc(-n2cc(CO[C@@H]3O[C@H](CO)[C@@H](O)[C@H](O)[C@H]3O)nn2)cc1`, for which, on Carbonic anhydrase 9, the Ki amounted to 101 nM.

As to `CC(=O)OC[C@H]1O[C@@H](OCc2cn(-c3ccc(S(N)(=O)=O)cc3)nn2)[C@H](OC(C)=O)[C@@H](OC(C)=O)[C@@H]1OC(C)=O`, on Carbonic anhydrase 9, the Ki came out at 107 nM.

With `CC(=O)OC[C@H]1O[C@@H](OCc2cn(-c3ccc(S(N)(=O)=O)cc3)nn2)[C@H](OC(C)=O)[C@@H](OC(C)=O)[C@H]1OC(C)=O`, at Carbonic anhydrase 9, affinity was put at a Ki of 9.7 nM.

Take `NS(=O)(=O)c1ccc(-n2cc(CO[C@@H]3O[C@H](CO)[C@@H](O)[C@H]3O)nn2)cc1`: at Carbonic anhydrase 9, affinity was put at a Ki of 69 nM.

In the case of `CC(=O)O[C@H]1[C@H](OC(C)=O)C(OCc2cn(-c3ccc(S(N)(=O)=O)cc3)nn2)OC[C@H]1OC(C)=O` (some centres undefined), the values for the Ki on Carbonic anhydrase 9 and at Carbonic anhydrase 2 were 72 nM and 9.3 nM, respectively.

For the molecule `CC(=O)OC[C@H]1O[C@H](O[C@H]2[C@H](OC(C)=O)[C@@H](OC(C)=O)[C@H](OCc3cn(-c4ccc(S(N)(=O)=O)cc4)nn3)O[C@@H]2COC(C)=O)[C@H](OC(C)=O)[C@@H](OC(C)=O)[C@@H]1OC(C)=O`, the Ki at Carbonic anhydrase 2 is 7.8 nM.

On Carbonic anhydrase 9, `[N-]=[N+]=Nc1ccc(S(N)(=O)=O)cc1` showed a Ki of 105 nM.

Take `NS(=O)(=O)c1ccc(-n2cc(CO[C@@H]3O[C@H](COCc4ccccc4)[C@@H](OCc4ccccc4)[C@H]3OCc3ccccc3)nn2)cc1`: the Ki at Carbonic anhydrase 2 was 7.6 nM.

Take `NS(=O)(=O)c1ccc(-n2cc(COC3OC[C@@H](O)[C@@H](O)[C@@H]3O)nn2)cc1` (some centres undefined): the results for the Ki at Carbonic anhydrase 9 and at Carbonic anhydrase 2 were 103 nM and 6.9 nM, respectively.
